Experimental data from patent US20120129721A1, “URINARY GM2 ACTIVATOR PROTEIN AS A MARKER OF ACUTE RENAL FAILURE OR THE RISK OF […] RENAL FAILURE” (priority 2009, published 2012).
Like-named read-outs stand apart in the source and are kept apart here.

Tests used:
[1] = system: Wistar rats; assay: Kidney histology (haematoxylin and eosin); format: in vivo
Procedure: Eventually, they were used for Western blot studies. […] The powder was also kept at −80° C. […] After it, tissue samples were processed for immunohistochemical studies.
Kidneys were kept in p-formaldehyde overnight at 4° C. Then, paraffin blocks were made and 5-μm tissue sections were cut and stained with hematoxilin and eosin. Photographs were taken under an Olympus BX51 microscope connected to an Olympus DP70 colour, digital camera.

[2] = system: GM2 activator protein (GM2AP) in urine
From the text: (§1) In-house bred, female Wistar rats weighing 190-230 g were divided in the following experimental groups (FIG. 1): (i) Control: rats treated i.p. during 7-13 days with saline (0.9% NaCl), once daily.
(§2) For the whole experiment, rats were individually allocated in metabolic cages under temperature and humidity controlled conditions. Animals were allowed to eat regular chow and drink water ad libitum. At different times, 24-hour urine and blood samples were obtained. Urine was collected in graduated vessels supplemented with 100 μL of 0.1% sodium azide and 1 ml oil to prevent contamination and evaporation, respectively. Subsequently, urine was cleared by centrifugation at 1,175×g, aliquoted and stored at −80° C. Blood was drawn from a small incision in the tail and collected in heparinised capillaries. These were immediately centrifuged at 12,000×g and plasma was stored at −80° C. At the end of the experiment, rats were anesthetized with sodium pentobarbital (10 mg/kg). The kidneys were perfused with heparinised saline through the abdominal aorta, and they were immediately dissected. The right kidney and one half of the left one were swiftly frozen by immersion in liquid nitrogen, and stored at −80° C. Eventually, they were used for Western blot studies. For such a purpose, frozen tissues were homogenized under freezing conditions by hammer-smashing, until a fine powder was obtained. The powder was also kept at −80° C. The second half of the left kidney was immersed in 3.7% paraformaldehyde at 4° C. during 14-16 hours. After it, tissue samples were processed for immunohistochemical studies.
Protein extracts were obtained from 100 mg tissue homogenate powder, prepared by homogenizing the kidneys with a tissue mixer (Ultra-Turrax T8, IKA®-Werwe) at 4° C. in homogenization buffer (140 mM NaCl, 20 mM Tris-HCl pH=7.5, 0.5 Methylenediaminetetraacetic acid—EDTA-, 10% glycerol, 1% Igepal CA-630, 1 μg/mL aprotinin, 1 μg/mL leupeptin, 1 μg/mL pepstatin A, 1 mM phenylmethylsulphonyl fluoride—PMSF-). Tissue homogenates were centrifuged at 22,000 g during 15 minutes at 4° C. Supernatants were collected. Protein concentration was measured with a commercial kit (BioRad) based on the Lowry method. 50 μg total protein from tissue extracts or 20 μL cleared urine from each sample were separated by electrophoresis in 10-15% acrylamide gels (Mini Protean II system, BioRad). Immediately, proteins were electrically transferred to an Immobilon-P membrane (Millipore). […]
Protein concentration was determined by the Bradford method.

[3] = system: PAI-1, KIM-1 and vimentin in renal tissue; assay: Western blot of renal tissue homogenates for markers of tissue damage and repair
From the text: as §1, §2
(§3) Protein extracts were obtained from 100 mg tissue homogenate powder, prepared by homogenizing the kidneys with a tissue mixer (Ultra-Turrax T8, IKA®-Werwe) at 4° C. in homogenization buffer (140 mM NaCl, 20 mM Tris-HCl pH=7.5, 0.5 Methylenediaminetetraacetic acid—EDTA-, 10% glycerol, 1% Igepal CA-630, 1 μg/mL aprotinin, 1 μg/mL leupeptin, 1 μg/mL pepstatin A, 1 mM phenylmethylsulphonyl fluoride—PMSF-). Tissue homogenates were centrifuged at 22,000 g during 15 minutes at 4° C. Supernatants were collected. Protein concentration was measured with a commercial kit (BioRad) based on the Lowry method. 50 μg total protein from tissue extracts or 20 μL cleared urine from each sample were separated by electrophoresis in 10-15% acrylamide gels (Mini Protean II system, BioRad). Immediately, proteins were electrically transferred to an Immobilon-P membrane (Millipore). After blocking the membrane to avoid unspecific binding, membranes were probed with antibodies against KIM-1 (R&D Systems), bone morphogenetic protein-7 (BMP-7, Santa Cruz Biotechnology), plasminogen activator inhibitor-1 (PAI-1, BD Biosciences), vimentin (Dako Denmark) and GM2 activator protein (GM2AP, see above).

[4] = system: Wistar rats; assay: Time course of markers of nephrotoxicity under gentamicin 150 mg/kg/day
From the text: as §1, §2
(§4) Plasma and urine concentration of creatinine and blood urea nitrogen (BUN) were determined by an automated analysis system (Reflotron®, Roche Diagnostics, Barcelona, Spain) and commercial reactive strips (Roche Diagnostics, Barcelona, Spain), using 32 μL of plasma and urine. This method has a lower detection limit of 0.5 mg/dL for creatinine. Samples reading under 0.5 mg/dL creatinine were head-to-head re-assayed by the colorimetric method of Jaffe (Hervey, 1953. Nature, 171: 1125).
(§5) Urine protein concentration (mg/mL) was measured by the Bradford method (39). Daily protein excretion (mg/day) was obtained by multiplying urine protein concentration by the 24-hour urine flow (mL/day).
(§6) Urine NAG activity (arbitrary units, AU/mL), as an estimation of urine NAG concentration, was measured by a commercial enzymatic test (Roche Diagnostics, Barcelona, Spain) following the manufacturer's instructions. Urine NAG activity was converted into daily NAG excretion (AU/day) by multiplying urine NAG activity by 24-hour urine flow (mL/day).
as §3

[5] = system: Wistar rats; assay: Survival rate and body weight evolution of rats treated with gentamicin; format: in vivo; details: gentamicin 150 mg/kg/day (G-150), 7 days
[6] = system: GM2 activator protein (GM2AP) in urine; assay: Urinary GM2AP (Western blot) and renal function in humans treated with gentamicin; format: in vivo; details: hospitalized patients under gentamicin regime for 2 or 3 days vs untreated controls
From the text: Supernatants were collected.
As controls, the urine from age- and sex-matched individuals not receiving gentamicin was used.

[7] = system: Wistar rats; assay: Renal function characterization (plasma creatinine, BUN, urinary protein and NAG excretion) of gentamicin-treated rats; details: for BUN concentration: vs control
From the text: as §1, §2, §4, §5, §6

[8] = G-150, after inception of treatment

## gentamicin
[1]; G-50, 7 days, vs control
  renal histology: no gross tissue alterations
[1]; G-150, 7 days
  renal histology: massive tubular necrosis
[2]; G-50, 7 days, vs control
  level of GM2AP in urine (Western blot): differential level
[2]; G-50, 7 days, absent in control urine
  GM2AP in urine (differential proteomics, 2D-electrophoresis): highly expressed
[2]; G-150, 7 days, overt renal failure
  level of GM2AP in urine (Western blot): increased
[3]; G-50, 7 days, vs control
  renal level of KIM-1: no increment
  renal level of PAI-1: no increment
  renal level of vimentin: no increment
[3]; G-150, 7 days
  renal level of KIM-1: clear increase
  renal level of PAI-1: clear increase
  renal level of vimentin: clear increase
[4]; [8]
  day by which BUN concentration was increased: 4 days
  day by which proteinuria was increased: 4 days
[4]; G-150, urine, Western blot
  day at which urinary level of GM2AP started to increase: 1 days
  day by which urinary level of KIM-1 was increased: 4 days
  day by which urinary level of PAI-1 was increased: 4 days
[4]; gentamicin 150 mg/kg/day, urine
  time from beginning of administration at which GM2AP is detected by Western blot: 24 h
[5]
  body weight: body weight loss
  death rate: ~50%
[6]
  urinary level of GM2AP (Western blot): clearly higher
[7]; 6 daily doses of 50 mg/kg/day (G-50)
  nephrotoxic effect (pilot dose titration): no signs of nephrotoxicity
[7]; 6 daily doses of 150 mg/kg/day (G-150)
  nephrotoxic effect (pilot dose titration): marked renal failure
[7]; G-50, 7 days
  BUN concentration: not modified
[7]; G-150, 7 days
  BUN concentration: profoundly altered

## N.N.[Cl][Pt][Cl] [cisplatin]
[2]; two doses of cisplatin 10 mg/kg on first and third days, urine 4 days after treatment inception
  urinary GM2AP (Western blot): high levels
